Values after ≈ are worked out from the molar mass of the structure shown.
How the values were obtained:
Experiment in all cases: in vitro antibacterial evaluation, MIC by broth dilution
Assay type in all cases: cell-based
Enterococcus sp. = settings: broth dilution, 18 hours at 35° C.
Method in brief: (§1)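 Inoculum 5×10^5 CFU/mL; concentrations 64 to 0.06 μg/mL; MIC defined as lowest inhibitory level. Conducted by broth dilution under NCCLS guidelines.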

Staphylococcus sp. = settings: broth dilution, 18 hours at 35° C.
Method in brief: as §1

Streptococcus sp. = settings: broth dilution, 18 hours at 35° C.
Method in brief: as §1

Escherichia coli = settings: 18 hours at 35° C.

COc1ccc2cc(COC3C(OC4C(CO)OC(Oc5ccc(CC6NC(=O)C(C(C)c7ccccc7)NC(=O)CNC(=O)C(CO)NC(=O)C(C(O)C7CNC(=N)N7C7OC(CO)C(O)C(O)C7O)NC(=O)C(C(O)C7CNC(=N)N7)NC6=O)cc5)C(O)C4O)OC(CO)C(O)C3O)ccc2c1 (stereo not drawn) [Example 230c, Cyclo[glycyl-β-methylphenylalanyl-O-[4-O-[2-O-[(6-methoxy-2-naphthyl)methyl]hexopyranosyl]hexopyranosyl]tyrosyl-3-(2-iminoimidazolidin-4-yl)seryl-3-(3-hexopyranosyl-2-iminoimidazolidin-4-yl)serylseryl]]
MIC Enterococcus avium (GC 4558) (Enterococcus sp.): 128 µg/mL (≈ 87.3 µM)
MIC Enterococcus faecalis (ATCC 29212) (Enterococcus sp.): >128 µg/mL
MIC Enterococcus faecalis (GC 2242) (Enterococcus sp.): >128 µg/mL
MIC Enterococcus faecalis (GC 2691) (Enterococcus sp.): >128 µg/mL
MIC Enterococcus faecalis (GC 3059) (Enterococcus sp.): >128 µg/mL
MIC Enterococcus faecalis (GC 4552) (Enterococcus sp.): >128 µg/mL
MIC Enterococcus faecalis (GC 4553) (Enterococcus sp.): 128 µg/mL (≈ 87.3 µM)
MIC Enterococcus faecalis (GC 4554) (Enterococcus sp.): >128 µg/mL
MIC Enterococcus faecalis (GC 6189) (Enterococcus sp.): >128 µg/mL
MIC Enterococcus faecium (GC 2243) (Enterococcus sp.): 128 µg/mL (≈ 87.3 µM)
MIC Enterococcus faecium (GC 4556) (Enterococcus sp.): >128 µg/mL
MIC Enterococcus faecium (GC 4557) (Enterococcus sp.): 32 µg/mL (≈ 21.8 µM)
MIC Enterococcus faecalis (ATCC 29212) (Enterococcus sp.; inoculum 5×10^5 CFU/mL, strain ATCC 29212): >128 µg/mL
MIC Enterococcus faecalis (GC 2242) (Enterococcus sp.; inoculum 5×10^5 CFU/mL, strain GC 2242): >128 µg/mL
MIC Enterococcus faecium (GC 2243) (Enterococcus sp.; inoculum 5×10^5 CFU/mL, strain GC 2243): 128 µg/mL (≈ 87.3 µM)
MIC Enterococcus faecalis (GC 2691) (Enterococcus sp.; inoculum 5×10^5 CFU/mL, strain GC 2691): >128 µg/mL
MIC Enterococcus faecalis (GC 3059) (Enterococcus sp.; inoculum 5×10^5 CFU/mL, strain GC 3059): >128 µg/mL
MIC Enterococcus faecalis (GC 4552) (Enterococcus sp.; inoculum 5×10^5 CFU/mL, strain GC 4552): >128 µg/mL
MIC Enterococcus faecalis (GC 4553) (Enterococcus sp.; inoculum 5×10^5 CFU/mL, strain GC 4553): 128 µg/mL (≈ 87.3 µM)
MIC Enterococcus faecalis (GC 4554) (Enterococcus sp.; inoculum 5×10^5 CFU/mL, strain GC 4554): >128 µg/mL
MIC Enterococcus faecium (GC 4556) (Enterococcus sp.; inoculum 5×10^5 CFU/mL, strain GC 4556): >128 µg/mL
MIC Enterococcus faecium (GC 4557) (Enterococcus sp.; inoculum 5×10^5 CFU/mL, strain GC 4557): 32 µg/mL (≈ 21.8 µM)
MIC Enterococcus avium (GC 4558) (Enterococcus sp.; inoculum 5×10^5 CFU/mL, strain GC 4558): 128 µg/mL (≈ 87.3 µM)
MIC Enterococcus faecalis (GC 6189) (Enterococcus sp.; inoculum 5×10^5 CFU/mL, strain GC 6189): >128 µg/mL
MIC Coagulase Negative Staphylococcus (GC 4547) (Staphylococcus sp.): 64 µg/mL (≈ 43.7 µM)
MIC Coagulase Negative Staphylococcus (GC 4548) (Staphylococcus sp.): 64 µg/mL (≈ 43.7 µM)
MIC Coagulase Negative Staphylococcus (GC 4549) (Staphylococcus sp.): 64 µg/mL (≈ 43.7 µM)
MIC Coagulase Negative Staphylococcus (GC 4551) (Staphylococcus sp.): 64 µg/mL (≈ 43.7 µM)
MIC Coagulase Negative Staphylococcus (GC 6257) (Staphylococcus sp.): 32 µg/mL (≈ 21.8 µM)
MIC Staphylococcus aureus (ATCC 29213) (Staphylococcus sp.): 128 µg/mL (≈ 87.3 µM)
MIC Staphylococcus aureus (GC 1131) (Staphylococcus sp.): 128 µg/mL (≈ 87.3 µM)
MIC Staphylococcus aureus (GC 3051) (Staphylococcus sp.): 128 µg/mL (≈ 87.3 µM)
MIC Staphylococcus aureus (GC 3053) (Staphylococcus sp.): 128 µg/mL (≈ 87.3 µM)
MIC Staphylococcus aureus (GC 4541) (Staphylococcus sp.): 64 µg/mL (≈ 43.7 µM)
MIC Staphylococcus aureus (GC 4542) (Staphylococcus sp.): >128 µg/mL
MIC Staphylococcus aureus (GC 4544) (Staphylococcus sp.): 128 µg/mL (≈ 87.3 µM)
MIC Staphylococcus aureus (GC 4545) (Staphylococcus sp.): 128 µg/mL (≈ 87.3 µM)
MIC Staphylococcus aureus-SMITH (GC 4543) (Staphylococcus sp.): 64 µg/mL (≈ 43.7 µM)
MIC Staphylococcus haemolyticus (GC 4546) (Staphylococcus sp.): 64 µg/mL (≈ 43.7 µM)
MIC Staphylococcus aureus (ATCC 29213) (Staphylococcus sp.; strain ATCC 29213): 128 µg/mL (≈ 87.3 µM)
MIC Staphylococcus aureus (GC 1131) (Staphylococcus sp.; strain GC 1131): 128 µg/mL (≈ 87.3 µM)
MIC Staphylococcus aureus (GC 3051) (Staphylococcus sp.; strain GC 3051): 128 µg/mL (≈ 87.3 µM)
MIC Staphylococcus aureus (GC 3053) (Staphylococcus sp.; strain GC 3053): 128 µg/mL (≈ 87.3 µM)
MIC Staphylococcus aureus (GC 4541) (Staphylococcus sp.; strain GC 4541): 64 µg/mL (≈ 43.7 µM)
MIC Staphylococcus aureus (GC 4542) (Staphylococcus sp.; strain GC 4542): >128 µg/mL
MIC Staphylococcus aureus-SMITH (GC 4543) (Staphylococcus sp.; strain GC 4543): 64 µg/mL (≈ 43.7 µM)
MIC Staphylococcus aureus (GC 4544) (Staphylococcus sp.; strain GC 4544): 128 µg/mL (≈ 87.3 µM)
MIC Staphylococcus aureus (GC 4545) (Staphylococcus sp.; strain GC 4545): 128 µg/mL (≈ 87.3 µM)
MIC Staphylococcus haemolyticus (GC 4546) (Staphylococcus sp.; strain GC 4546): 64 µg/mL (≈ 43.7 µM)
MIC Coagulase Negative Staphylococcus (GC 4547) (Staphylococcus sp.; strain GC 4547): 64 µg/mL (≈ 43.7 µM)
MIC Coagulase Negative Staphylococcus (GC 4548) (Staphylococcus sp.; strain GC 4548): 64 µg/mL (≈ 43.7 µM)
MIC Coagulase Negative Staphylococcus (GC 4549) (Staphylococcus sp.; strain GC 4549): 64 µg/mL (≈ 43.7 µM)
MIC Coagulase Negative Staphylococcus (GC 4551) (Staphylococcus sp.; strain GC 4551): 64 µg/mL (≈ 43.7 µM)
MIC Coagulase Negative Staphylococcus (GC 6257) (Staphylococcus sp.; strain GC 6257): 32 µg/mL (≈ 21.8 µM)
MIC Streptococcus agalactiae (GC 4564) (Streptococcus sp.): 32 µg/mL (≈ 21.8 µM)
MIC Streptococcus pneumoniae (ATCC 6301) (Streptococcus sp.): 32 µg/mL (≈ 21.8 µM)
MIC Streptococcus pneumoniae (GC 1894) (Streptococcus sp.): 16 µg/mL (≈ 10.9 µM)
MIC Streptococcus pneumoniae (GC 4565) (Streptococcus sp.): 32 µg/mL (≈ 21.8 µM)
MIC Streptococcus pyogenes (GC 4563) (Streptococcus sp.): 64 µg/mL (≈ 43.7 µM)
MIC Streptococcus pneumoniae (ATCC 6301) (Streptococcus sp.; inoculum 5×10^5 CFU/mL, strain ATCC 6301): 32 µg/mL (≈ 21.8 µM)
MIC Streptococcus pneumoniae (GC 1894) (Streptococcus sp.; inoculum 5×10^5 CFU/mL, strain GC 1894): 16 µg/mL (≈ 10.9 µM)
MIC Streptococcus pyogenes (GC 4563) (Streptococcus sp.; inoculum 5×10^5 CFU/mL, strain GC 4563): 64 µg/mL (≈ 43.7 µM)
MIC Streptococcus agalactiae (GC 4564) (Streptococcus sp.; inoculum 5×10^5 CFU/mL, strain GC 4564): 32 µg/mL (≈ 21.8 µM)
MIC Streptococcus pneumoniae (GC 4565) (Streptococcus sp.; inoculum 5×10^5 CFU/mL, strain GC 4565): 32 µg/mL (≈ 21.8 µM)
MIC Escherichia coli (ATCC 25922) (Escherichia coli): >128 µg/mL
MIC Escherichia coli (GC 4559) (Escherichia coli): >128 µg/mL
MIC Escherichia coli (GC 4560) (Escherichia coli): 32 µg/mL (≈ 21.8 µM)
